Among the data in patent US6727264B1 (Synaptic Pharmaceutical Corporation, priority 2001, dated 2004) are Ki values, retold here.

Where two headings read alike, the source gives them in different places.

In this assay the target is rat MCH-1 (Rattus norvegicus, UniProt P97639). Kind of assay: Radioligand binding assay at cloned rat MCH1 receptor ([3H] Compound A). On the set-up: host or cells: Peak rapid 293 (Peakr293) cells, transient calcium phosphate transfection, membranes. As to conditions: cloned rat MCH1 receptor, 0.08 nM [3H] Compound A, read-out: Ki (nM) rMCH1.
rat MCH-1, sequence (P97639 whole entry): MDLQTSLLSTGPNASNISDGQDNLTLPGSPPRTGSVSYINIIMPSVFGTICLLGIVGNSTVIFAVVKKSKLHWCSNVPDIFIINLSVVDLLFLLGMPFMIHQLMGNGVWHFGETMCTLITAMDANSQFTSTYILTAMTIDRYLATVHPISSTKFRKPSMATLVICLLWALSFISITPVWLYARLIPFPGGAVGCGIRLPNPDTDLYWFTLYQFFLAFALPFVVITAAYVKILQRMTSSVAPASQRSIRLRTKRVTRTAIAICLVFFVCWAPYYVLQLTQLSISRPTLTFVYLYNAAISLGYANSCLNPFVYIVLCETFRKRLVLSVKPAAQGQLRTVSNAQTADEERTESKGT

A word on the Ki: it is the dissociation constant of the complex between target and ligand, obtained from inhibition or displacement.

For the compound `CC(C)C(=O)Nc1cccc(C2CCN(CCCCCC(O)c3ccc(Cl)cc3)CC2)c1` (stereo not drawn) [Example 818], the Ki (Peakr293 cell membranes) was determined as 38.2 nM.
The same measure, in the same setting: with `CC(C)C(=O)Nc1cccc(C2CCN(CCCc3c(-c4cccc(Cl)c4)n(-c4ccccc4)c4ccccc34)CC2)c1` [Example 725] the figure was 152 nM.
Regarding `CC(C)C(=O)Nc1cccc(C2CCN(Cc3ccc(-c4ccccc4)s3)CC2)c1` [Example 233], the Ki (membranes from Peakr293 cells) came out at 125 nM.
Consider `CC(=O)c1cccc(OCCCCCCN2CCC(c3cccc(NC(=O)C(C)C)c3)CC2)c1` [Example 383], for which the Ki (membranes from Peakr293 cells) worked out at 290 nM.
Regarding `CC(C)C(=O)Nc1cccc(C2CCN(Cc3ccc4c(ccn4-c4ccccc4[N+](=O)[O-])c3)CC2)c1` [Example 851], the Ki (Peakr293 cell membranes) is 27.4 nM.
Consider `CC(C)C(=O)Nc1cccc(C2CCN(CCc3c(-c4ccccc4)[nH]c4c3ccc3ccccc34)CC2)c1` [Example 387], for which the Ki (membranes from Peakr293 cells) worked out at 19.7 nM.
On to `O=C(CCCCN1CCC(c2cccc(NC(=O)C3CC3)c2)CC1)c1ccc([N+](=O)[O-])cc1` [Example 557], for which the Ki (Peakr293 cell membranes) came to 25.6 nM.
On the same count and under the same terms, next, `CC(C)C(=O)Nc1cccc(C2CCN(CCCc3c(-c4ccccc4Br)n(-c4ccccc4)c4ccccc34)CC2)c1` [Example 784]: 121 nM; `CC(C)C(=O)Nc1cccc(C2CCN(CCCCn3ccc4ccccc43)CC2)c1` [Example 837]: 35.9 nM.
The same measure, in the same setting: with `COc1cccc(-n2cc(CN3CCC(c4cccc(NC(=O)C(C)C)c4)CC3)c3ccccc32)c1` [Example 451] the figure was 18.7 nM.
The same measure, in the same setting: next, `CC(C)C(=O)Nc1cccc(C2CCN(CCCCCC(Oc3cc(C(F)(F)F)ccc3F)c3ccc(F)cc3)CC2)c1` (stereo not drawn) [Example 911]: 7.6 nM.
As to `CC(C)C(=O)Nc1cccc(C2CCN(Cc3cn(-c4ccccc4)c4cc(F)ccc34)CC2)c1` [Example 502], the Ki (Peakr293 cell membranes) amounted to 4.6 nM.
In the case of `CC(C)C(=O)Nc1cccc(C2CCN(CCCCC(=O)c3ccc(F)cc3)CC2)c1` [Example 662], the Ki (Peakr293 cell membranes) was 50.3 nM.
Same read-out and setting: with `O=C(Nc1cccc(C2CCN(CCCCCCSc3ccccc3)CC2)c1)C1CC1` [Example 582] the figure was 58.3 nM.
The same measure, in the same setting: with `CC(C)C(=O)Nc1cccc(C2CCN(Cc3cn(-c4ccccc4F)c4ccccc34)CC2)c1` [Example 439] the figure was 8.5 nM; with `COc1cc2[nH]cc(CN3CCC(c4cccc(NC(=O)C(C)C)c4)CC3)c2cc1OC` [Example 440], 107 nM.
With `CCCOc1ccc(CN2CCC(c3cccc(NC(=O)C(C)C)c3)CC2)c2ccccc12` [Example 197], the Ki (membranes from Peakr293 cells) is 63.1 nM.
On the same count and under the same terms, next, `COc1ccccc1OCCCCN1CCC(c2cccc(NC(=O)C(C)C)c2)CC1` [Example 378]: 308 nM; `CC(=O)c1cccc(OCCCCCCN2CCC(c3cccc(NC(=O)C4CC4)c3)CC2)c1` [Example 384]: 69 nM.
For the compound `O=C(Nc1cccc(C2CCN(Cc3cn(-c4ccccc4)c4ccccc34)CC2)c1)C1CC1` [Example 465], where the note is “Peakr293 cell membranes”, the Ki was 10.7 nM.
Same read-out and setting: next, `CCC(=O)Nc1cccc(C2CCN(CCCCCCSc3ccccc3)CC2)c1` [Example 588]: 284 nM.
In the case of `CCC(=O)Nc1cccc(C2CCN(CCCCC(=O)c3cccc(Cl)c3)CC2)c1` [Example 562], the Ki (Peakr293 cell membranes) was determined as 48.1 nM.
As to `CC(C)C(=O)Nc1cccc(C2CCN(CCCC/C(=N\Nc3ccccc3)c3ccc([N+](=O)[O-])cc3)CC2)c1` [Example 778], the inhibitory constant (Ki) (Peakr293 cell membranes) is 26.5 nM.
In the case of `CCOc1ccccc1OC(CCCCCN1CCC(c2cccc(NC(=O)C(C)C)c2)CC1)c1ccccc1F` (stereo not drawn) [Example 895], for the setting “Peakr293 cell membranes”, the Ki is 6.4 nM.
Take `CC(C)C(=O)Nc1cccc(C2CCN(C[C@@H](C)COc3ccc(Cl)cc3)CC2)c1` [Example 369]: where the note is “membranes from Peakr293 cells”, the Ki amounted to 145 nM.
On the same count and under the same terms, next, `Cc1onc(-c2ccccc2Cl)c1C(=O)OCCCN1CCC(c2cccc(NC(=O)C(C)C)c2)CC1` [Example 289, 3-{4-[3-(ISOBUTYRYLAMINO)PHENYL]-1-PIPERIDINYL}PROPYL 3-(2-CHLOROPHENYL)-5-METHYL-4-ISOXAZOLECARBOXYLATE]: 31.8 nM.
Still for that read-out and setting: next, `CC(=O)c1cccc(O[C@@H](CCN2CCC(c3cccc(NC(=O)C4CC4)c3)CC2)c2ccccc2)c1` [Example 340]: 15.6 nM.
